One data set relates to Plasmodium falciparum. Nature of the data set: Antimalarial activity against ring stage of Plasmodium falciparum 3D7 infected in erythrocytes assessed as [3H]-hypoxanthine incorporation after 48 hrs by liquid scintillation counting analysis. In kind it is functional, organism-based.
Another data set concerns NFF. In words: Cytotoxicity against human NFF cells up to 100 uM after 3 days by SRB assay. The settings on record: 72 h. In kind it is cell-based.

A word on the IC50: it is the concentration that gives 50% inhibition. The term IC90 denotes the point of the concentration-response curve where the effect stands at 90%. As usually defined, the IC95 is the point of the concentration-response curve where the effect stands at 95%.

`COc1cc(C(=O)O)ccc1O[C@@H]1O[C@H](COC(=O)/C=C/c2ccccc2)[C@@H](O)[C@H](O)[C@H]1O`: the IC50 in the data set with Plasmodium falciparum is above 25 µM.
On to `O=C(/C=C/c1ccccc1)OC[C@H]1O[C@@H](OC[C@@H](O)[C@@H](O)[C@H](O)[C@H](O)CO)[C@H](O)[C@@H](O)[C@@H]1O`, for which, in the data set with Plasmodium falciparum, the IC50 is above 25 µM.
On to `O=C(/C=C/c1ccc(O)c(O)c1)OC[C@H]1O[C@@H](OC[C@@H](O)[C@@H](O)[C@H](O)[C@H](O)CO)[C@H](O)[C@@H](O)[C@@H]1O`, for which the IC50 in the data set with Plasmodium falciparum is above 25 µM.
As to `COc1cc(C(C)=O)ccc1O[C@@H]1O[C@H](COC(=O)/C=C/c2ccc(O)cc2)[C@@H](O)[C@H](O)[C@H]1O`, the half-inhibitory concentration (IC50) in the data set on Plasmodium falciparum is above 25 µM.
With `CC(=O)c1ccc(O[C@@H]2O[C@H](COC(=O)/C=C/c3ccc(O)cc3)[C@@H](O)[C@H](O)[C@H]2O)cc1`, in the data set on Plasmodium falciparum, the concentration for half-maximal inhibition (IC50) is above 25 µM.
Regarding `COc1cc(/C=C/C(=O)OC[C@H]2O[C@@H](Oc3ccc(C(C)=O)cc3OC)[C@H](O)[C@@H](O)[C@@H]2O)ccc1O`, the IC50 in the data set on Plasmodium falciparum was above 25 µM.
On the same count and under the same terms, the result for `CC(=O)OC(C)(C)CCC(=O)[C@](C)(O)[C@H]1[C@H](O)C[C@@]2(C)[C@@H]3CC=C4[C@H](C[C@H](O[C@@H]5O[C@H](CO)[C@@H](O)[C@H](O)[C@H]5O)[C@H](O)C4(C)C)[C@]3(C)CC[C@]12C` reads above 25 µM.
With `CC(=O)OC(C)(C)/C=C/C(=O)[C@](C)(O)[C@H]1[C@H](O)C[C@@]2(C)[C@@H]3CC=C4[C@H](C[C@H](O[C@@H]5O[C@H](CO)[C@@H](O)[C@H](O)[C@H]5O)[C@H](O)C4(C)C)[C@]3(C)CC[C@]12C`, the Activity entry in the data set with NFF is given as “Non-toxic”. Moreover, in the data set with Plasmodium falciparum, the concentration for half-maximal inhibition (IC50) came out at 8.3 µM, the IC90 turned out to be 17.3 µM and the IC95 came out at 23.5 µM.
In the case of `COc1cc(C(C)=O)ccc1O[C@@H]1O[C@H](COC(=O)/C=C/c2ccccc2)[C@@H](O)[C@H](O)[C@H]1O`, in the data set with Plasmodium falciparum, the half-inhibitory concentration (IC50) is above 25 µM.
For `O=C(/C=C/c1ccccc1)OC[C@H]1O[C@@H](O[C@@H]2OC=C[C@H]3[C@H](O)[C@@H]4O[C@]4(CO)[C@@H]23)[C@H](O)[C@@H](O)[C@@H]1O` [PICROSIDE I], in the data set with Plasmodium falciparum, the IC50 was above 25 µM.

The values are drawn from ChEMBL document CHEMBL2434868, “Chemical investigation of an antimalarial Chinese medicinal herb Picrorhiza scrophulariiflora” (Bioorg Med Chem Lett, 2013).
